Measured values as given in patent US10993920B2, “2-dodecyl-6-methoxycyclohexa-2,5-diene-1,4-dione as a cancer therapeutic” (MIDDLE TENNESSEE STATE UNIVERSITY, priority 2014, dated 2021).

What was measured:
[1] = test system: NF-κB nuclear translocation in BT20 cells; assay: Inhibition of TNF-α activated NF-κB translocation (HCS); type: cell-based, human; details: BT20, 10 ng/ml TNF-α; 10 μM more significant than 32 and 100 μM
MCF-7 [2] = assay: Apoptosis assay (Annexin V/7-AAD); type: cell-based, human; details: MCF-7, 48 h, concentration-dependent
Procedure: (§1) MCF-7 and BT20 cells were seeded in a 96-well plate (Corning Costar) at a density of 8,000 cells/well and were subsequently treated with different concentrations (10, 32, 100 μM) of DMDD for 48 h. Afterwards, the cells were stained with Annexin V (Millipore) and 7-Aminoactinomycin (7-AAD) (Millipore), and analyzed on a Guava flow cytometer using InCyte software (Millipore).

BT20 [3] = assay: Apoptosis assay (Annexin V/7-AAD); type: cell-based, human; details: BT20, 48 h, concentration-dependent
Procedure: as §1

[4] = diabetic mouse model; cited from earlier work
[5] = test system: NF-κB nuclear translocation in MCF-7 cells; assay: Inhibition of TNF-α activated NF-κB translocation (HCS); type: cell-based, human; details: MCF-7, 2 h, 10 ng/ml TNF-α; concentration-dependent
Procedure: MCF-7 cells were seeded in a 96 well plate (Corning Costar) at a density of 8,000 cells/well and then treated with 100 μM DMDD for 2 h, followed by the addition of 10 ng/ml tumor necrosis factor-alpha (TNF-α) (Sigma). Untreated cells and cells treated with 10 ng/ml TNF-α alone served as controls. Cells were fixed, permeabilized, and sequentially stained with Nuclear factor kappa B (NF-κB) primary antibody, Dylight 488-conjugated secondary antibody, and Hoechst 33342 dye. The Hoechst and DyLight fluorophores detect changes in nuclear morphology (blue fluorescence) and NF-κB distribution (green fluorescence), respectively. The samples were analyzed on an Arrayscan VTI HCS Reader (Thermo Scientific). The Nuclear Translocation BioApplication (Thermo Scientific) was used for image acquisition and analysis. For each well, at least 400 cells were automatically acquired and analyzed. The translocation index was calculated by measuring the average intensity difference of NF-κB between the identified cytoplasmic region and nuclear region (MEAN_CircRingAvgIntenDiffCh2).

[6] = single dose 5,000 mg/kg body weight; cited from earlier work
HMEC = assay: Anti-proliferation assay (PrestoBlue), normal cell control; type: cell-based, human; details: for cell death: HMEC
Procedure: (§2) BT20 and MCF-7, human breast carcinoma cell lines (ATCC), were maintained in RPMI 1640 and Dulbecco's Modified Eagle Medium (DMEM) (Sigma), respectively. THP-1, a human monocytic leukemic cell line (ATCC), was maintained in RPMI 1640. HMEC, a normal human mammary epithelial cell line (ATCC), was maintained in McCoy's 5A (ATCC). All mediums were supplemented with 10% fetal bovine serum (FBS) (Gibco) and 1% penicillin-streptomycin and all cells were incubated in a humidified atmosphere with 5% CO2 at 37° C.
(§3) The proliferation inhibition potential of DMDD was determined in human breast cancer cell lines MCF-7 and BT20 by a fluorescence dye staining method with the normal cell line HMEC serving as a control. Cells were seeded at a density of 4˜5×10^3 cells/well in a 96-well tissue culture-treated plate (Corning Costar) and were incubated overnight. They were then treated with DMDD at final concentrations of 320 μM, 100 μM, 32 μM, 10 μM, 3.2 μM, 1 μM, and 0.32 μM. An experimental control with cells only was also included. After incubation for 48 h, the viability of cells was assessed using PrestoBlue dye (Invitrogen) according to manufacturer's protocol. The fluorescence intensity was measured on a SpectraMax M2e microplate reader (Molecular Devices, Inc.) at a fluorescent excitation wavelength of 555 nm and emission wavelength of 590 nm. The results were expressed as a percentage, relative to untreated control cells, and the half maximal inhibitory concentration (IC50) values were calculated using non-linear regression analysis.

MCF-7 [7] = assay: Cytochrome c release assay; type: cell-based, human; details: MCF-7, 48 h
Procedure: (§4) MCF-7 and BT20 cells were seeded in a 96-well plate (Corning Costar) at a density of 8,000 cells/well and were subsequently treated with 100 μM of DMDD for 48 h. The percentage of cells releasing cytochrome c from mitochondria was determined using the FlowCellect Cytochrome c Kit (Millipore) according to the manufacturer's protocol. Briefly, cells were permeabilized, fixed, and stained with either anti-IgG1-FITC Isotype control or anti-Cytochrome c-FITC dye. Data was acquired and analyzed using a Guava flow cytometer and InCyte software (Millipore).

BT20 [8] = assay: Cytochrome c release assay; type: cell-based, human; details: BT20, 48 h
Procedure: as §4

THP-1 = assay: AlamarBlue cell viability of THP-1 cells; type: cell-based, human; details: with or without LPS stimulation
Procedure: (§5) THP-1 cells were seeded in a 96 well plate at a density of 5×10^5 cells/well, and incubated with 100 nM phorbol-12-myristate-13-acetate (PMA) (Sigma) for 72 h. After washing the wells with warm RPMI 1640 medium, cells were pretreated with various concentrations of DMDD (10, 32, 100 μM) for 30 minutes followed by 100 ng/ml Salmonella enterica serotype typhimurium lipopolysaccharide (LPS) (Sigma). Dexamethasone at 1 μM (Sigma) was used as a positive control. After 4 h of stimulation, supernatants were collected for the quantification of human TNF-α using the Duoset enzyme-linked immunosorbent assay (ELISA) development kit (R&D Systems). AlamarBlue cell viability reagent (Invitrogen) was used to access cell integrity, after the supernatant was removed, at a fluorescent excitation wavelength of 555 nm and emission wavelength of 590 nm.

MCF-7 [9] = assay: Anti-proliferation assay (PrestoBlue) and IC50 determination; type: cell-based, human
Procedure: as §2, §3

BT20 [10] = assay: as above; type: cell-based, human
Procedure: as §2, §3

MCF-7 [11] = assay: Cell cycle analysis (PI staining); type: cell-based, human; details: MCF-7, 24 h; increased from 52%; not concentration-dependent
Procedure: (§6) MCF-7 and BT20 cells were first synchronized in the G0 phase by culturing cells for 24 h in serum-free medium, and then treated with 100 μM DMDD for 24 h. Cell cycle analysis was performed using propidium iodide (PI) (Millipore) staining as described (27). Cells were analyzed using a Guava flow cytometer with InCyte software (Millipore).

BT20 [12] = assay: Cell cycle analysis (PI staining); type: cell-based, human; details: BT20, 24 h; increased from 46%; not concentration-dependent
Procedure: as §6

[13] = test system: caspase 3/7 in MCF-7 cells; assay: Caspase-Glo 3/7 activation assay; type: cell-based, human; details: MCF-7, 4 h, concentration-dependent
Procedure: Caspase 3/7 and caspase 8 activities were analyzed using an in-situ luminescent maker in MCF-7 and BT20 cells respectively. […] Caspases activity was then determined using the Caspase-Glo 3/7 Assay (Promega) or the Caspase-Glo 8 Assay (Promega) according to the manufacturer's instructions. Briefly, cells were incubated with Caspase-Glo 3/7 substrate or Caspase-Glo 8 substrate and the luminescence of each sample was measured using a SpectraMax M2e Microplate Reader (Molecular Devices).

[14] = test system: LPS-induced TNF-α production in THP-1 cells; assay: Human TNF-α ELISA, LPS induced THP-1 cells; type: cell-based; details: THP-1, 12.5-50 μM pretreatment 30 min, 100 ng/ml LPS 4 h
Procedure: as §5, with “After washing the wells with warm RPMI 1640 medium, cells were pretreated with various concentrations of DMDD (10, 32, 100 μM) for 30 minutes followed by 100 ng/ml Salmonella enterica serotype typhimurium lipopolysaccharide (LPS) (Sigma).” left out

caspase 8 in MCF-7 cells = assay: Caspase-Glo 8 activation assay; type: cell-based, human; details: MCF-7, 4 h, depending on the concentration
Procedure: (§7) Caspase 3/7 and caspase 8 activities were analyzed using an in-situ luminescent maker in MCF-7 and BT20 cells respectively. Cells were seeded in a white 96-well plate (Greiner), treated with 100 μM DMDD for 4 h. Caspases activity was then determined using the Caspase-Glo 3/7 Assay (Promega) or the Caspase-Glo 8 Assay (Promega) according to the manufacturer's instructions. Briefly, cells were incubated with Caspase-Glo 3/7 substrate or Caspase-Glo 8 substrate and the luminescence of each sample was measured using a SpectraMax M2e Microplate Reader (Molecular Devices).

caspase 8 in BT20 cells = assay: Caspase-Glo 8 activation assay; type: cell-based, human; details: BT20, 4 h, depending on the concentration
Procedure: as §7

MCF-7 [15] = assay: Oxidative stress determination (DHE, HCS); type: cell-based, human; details: 48 h
Procedure: (§8) MCF-7 and BT20 cells were seeded in a 96-well tissue culture-treated plate (Corning Costar) at a density of 8,000 cells/well and were subsequently treated with different concentrations (10, 32, 100 μM) of DMDD for 48 h. Non-treated cells served as negative control, and cells treated with 1 μM Retenone served as positive control. Afterwards, the cells were stained with Hoechst 33342 (Thermo Scientific) and dihydroethidium (DHE) (Sigma), fixed and evaluated on an ArrayScan VTI HCS Reader (Thermo Scientific). The generation of ROS in cells was quantified by the oxidation of non-fluorescent DHE to fluorescent ethidium, which subsequently binds to DNA. The Nuclear Translocation BioApplication software (Thermo Scientific) was used for image acquisition and analysis. For each well, at least 400 cells were automatically acquired and analyzed. Oxidative stress activation was assessed by the DHE staining in the nucleus and measured by the average intensity of fluorescent ethidium in the identified nuclear region (MEAN_CircAvgIntenCh2).

BT20 [16] = assay: Oxidative stress determination (DHE, HCS); type: cell-based, human; details: 48 h
Procedure: as §8

[17] = test system: caspase 3/7 in BT20 cells; assay: Caspase-Glo 3/7 activation assay; type: cell-based, human; details: BT20, 4 h, concentration-dependent
MCF-7 [18] = assay: Multi parameter cytotoxicity measurement (HCS); type: cell-based, human; details: MCF-7, 48 h, dose-dependent
Procedure: (§9) MCF-7 and BT20 cells were seeded in a 96-well plate (Corning Costar) at a density of 4,000 cells/well and subsequently treated with different concentrations (10, 32, 100 μM) of DMDD for 48 h. Non-treated cells and cells treated with 100 μM Valinomycin were used as negative (control) and positive controls, respectively. Afterwards, the cells were stained with a mixture of fluorescent dyes including Hoechst 33342, cell permeability dye and mitochondrial membrane potential dye (Thermo Scientific). These dyes indicated changes in nuclear morphology (Channel 1), cell membrane permeability (Channel 2) and mitochondrial transmembrane potential (Channel 3), respectively. The cells were fixed and washed, and images for each fluoroprobe were acquired at different channels using suitable filters with a 20× objective and analyzed on the Arrayscan VTI HCS Reader (Thermo Scientific). The Cell Health Profiling BioApplication (Thermo Scientific) was used for image acquisition and analysis. For each well, at least 400 cells were automatically acquired and analyzed. The average fluorescent intensity was used to quantify changes in each channel.

BT20 [19] = assay: Multi parameter cytotoxicity measurement (HCS); type: cell-based, human
Procedure: as §9

[20] = test system: caspase-3, -8, -9 expression in pancreas tissue; details: pancreas tissue of mice; cited from earlier work

CCCCCCCCCCCCC1=CC(=O)C=C(OC)C1=O [DMDD, 2-dodecyl-6-methoxycyclohexa-2,5-diene-1,4-dione]
inhibition of TNF-α-induced NF-κB nuclear translocation [1]: significant inhibition | apoptosis induction (MCF-7 [2]): induced apoptosis | apoptosis induction (BT20 [3]): induced apoptosis | effective dosage [4]: 12.5 to 25 mg/kg | inhibition of TNF-α-induced NF-κB nuclear translocation [5]: significant inhibition | acute toxicity [6]: did not cause any acute toxicity | cell death (HMEC; 3.2 μM): not affected | cell death (HMEC; 10 μM): 12.7% | IC50 (HMEC; Homo sapiens, HMEC normal cells, 48 h treatment): 48.1 µM | cytochrome c release from mitochondria (MCF-7 [7]): released | cytochrome c release from mitochondria (BT20 [8]): released | viability of THP-1 cells (THP-1): did not affect the viability | IC50 (MCF-7 [9]; Homo sapiens, MCF7, MCF-7, 48 h treatment): 3.44 µM | cell death (MCF-7 [9]; MCF-7, 3.2 μM): 49.9% | cell death (MCF-7 [9]; MCF-7, 10 μM): 84.5% | cell death (BT20 [10]; BT20, 3.2 μM): 43.8% | cell death (BT20 [10]; BT20, 10 μM): 63.5% | IC50 (BT20 [10]; Homo sapiens, BT-20, BT20, 48 h treatment): 5.03 µM | percentage of G1 phase cells (MCF-7 [11]): 71% | percentage of G1 phase cells (BT20 [12]): 65% | caspase 3/7 activity vs untreated cells [13]: increased significantly | TNF-α level in supernatants relative to LPS alone [14]: significant reduction | caspase 8 activity increase (caspase 8 in MCF-7 cells): 2-5 fold | caspase 8 activity increase (caspase 8 in BT20 cells): 2-5 fold | ROS level versus untreated control (MCF-7 [15]; MCF-7, 10 μM): nearly two-fold | ROS level versus non-treated control (MCF-7 [15]; MCF-7, 33 μM): nearly three-fold | ROS level versus untreated control (MCF-7 [15]; MCF-7, 100 μM): nearly two-fold | ROS level versus untreated control (BT20 [16]; BT20, 10 μM): nearly two-fold | ROS level versus non-treated control (BT20 [16]; BT20, 33 μM): nearly three-fold | ROS level versus untreated control (BT20 [16]; BT20, 100 μM): nearly two-fold | caspase 3/7 activity vs untreated cells [17]: increased significantly | mitochondrial membrane potential (MCF-7 [18]): loss of mitochondrial potential | plasma membrane permeability (MCF-7 [18]): increased plasma membrane permeability | nuclear morphology (BT20 [19]; BT20, 100 μM, 48 h): nuclear condensation | mitochondrial membrane potential (BT20 [19]; BT20, 48 h, dose-dependent): loss of mitochondrial potential | plasma membrane permeability (BT20 [19]; BT20, 48 h, dose-dependent): increased plasma membrane permeability | caspase-3, -8, -9 expression [20]: significantly reduced
